Here are results for six compounds from patent US9050346B2, “Bromodomain inhibitors” (AbbVie Inc., priority 2013, dated 2015).

By Ki is commonly meant the equilibrium dissociation constant of an inhibitor or competing ligand from its target.

Marks after values point to notes of the source that are not given here.

One series addresses T1, BRD4 (BDI_K57-E168) (Homo sapiens, UniProt O60885).
T1 construct: BD1: amino acids K57-E168; made in house
Briefly: TR-FRET bromodomain binding assay, BRD4 first bromodomain. As to conditions: His-tagged BD1, 100 nM Alexa647 probe; Ki calculated from IC50; dilution protocol A-G. Summed up: (§1)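 His-tagged BRD4 BD1 (K57-E168) or BD2 (8 nM) with Eu-anti-His antibody and Alexa647-labeled BET-inhibitor probe (100 nM for BDI, 30 nM for BDII), pH 6.0 phosphate buffer, 2% DMSO, 1 h at room temperature. TR-FRET (Ex 340, Em 495/520); IC50 by 4-parameter fit, converted to Ki using probe Kd and concentration.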

Another series deals with T2, BRD4 (BDII_E352-M457) (Homo sapiens, UniProt O60885).
T2 construct: made in house
The series is described as follows: TR-FRET bromodomain binding assay, BRD4 second bromodomain. An outline of the steps: as §1
For orientation: TR-FRET usually uses a lanthanide donor and a delayed reading to cut background.

Series [1] has as its system breast cancer cell line MX-1. Briefly: MX-1 cell line proliferation assay (3-day, Cell Titer Glo). It counts as cell-based. The note with it: Homo sapiens, MX1, MX-1 cells, 72 h, top concentration 3 μM, read-out: Cellular proliferation: EC50. An outline of the steps:
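MX-1 cells, 5000/well in RPMI 1640 with 10% FBS, adhered overnight, then treated 3 days with compound at final 3 to 0.0001 μM (3-fold steps). Cell Titer Glo luminescence normalized to DMSO-treated cells; EC50 from sigmoidal fit.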

Series [2] deals with LPS induced IL-6 production. Briefly: LPS (lipopolysaccharide) induced IL-6 production mouse assay. It counts as in vivo. The note with it: 3 mg/kg oral, 1 h before LPS 2.5 mg/kg i.p.; serum IL-6 2 h after LPS; SCID female mice; all p<0.05. The method, then: Compounds of the Examples listed in Table 2 were assayed for their ability to inhibit LPS (lipopolysaccharide) induced IL-6 (Interleukin-6) production in mice. Fox Chase SCID® female mice (Charles Rivers Labs, 5 per group) received an intraperitoneal challenge of lipopolysaccharide (2.5 mg/kg, L2630 E. coli 0111:B4) one hour after oral administration of compounds. Mice were euthanized 2 hours after lipopolysaccharide injection, blood was removed by cardiac puncture, and then the serum harvested from the blood samples was frozen at −80° C. On the day of the assay the serum samples were brought to room temperature and then diluted 1:20 in phosphate-buffered saline containing 2% bovine serum albumin. Interleukin-6 measurements were performed using a cytokine assay from Meso Scale Discovery (Gaithersburg, Md.) for mouse serum analysis according to the manufacturer's protocol and read on a SECTOR Imager 6000 (Meso Scale Discovery, Gaithersburg, Md.) instrument. Statistical analysis was performed using Prism software (version 5.0) incorporating Dunnett's one way ANOVA. The IL-6 mean and standard deviation of the group of vehicle treated animals were compared with the IL-6 mean and standard deviation of the group treated with drug. A p value<0.05 means that there is less than a 5% probability that the mean values in the two groups are equal.
Xenograft Tumor Growth Inhibition Assay

Series [3] has as its system OPM-2 human multiple myeloma xenograft tumors. Briefly: OPM-2 xenograft tumor growth inhibition assay. The note with it: QDx21; for % TGI: SCID-beige mice; for % TGD (tumor growth delay): endpoint 1000 mm^3. It counts as in vivo, mice. The method, then:
The effect of compounds of the examples to inhibit the growth of OPM-2 xenograft tumors implanted in mice was evaluated. A suspension of cancer cells (5×10^6 per 0.1 mL) prepared in RPMI culture medium (Invitrogen, Carlsbad, Calif.) was diluted 1:1 with a solution of Matrigel™ (BD Biosciences, Franklin Lakes, N.J.) and inoculated subcutaneously into the right hind flank of female SCID-beige (Charles River Labs) mice. Randomization into treatment and vehicle control groups (10/group) occurred when the mean tumor volume reached approximately 250 mm^3. Compounds were formulated in 2.5% DMSO, 10% EtOH, 27.5% PEG 400, 60% Phosol 53 MCT. Administration of compound or vehicle was initiated on the day following randomization and continued for 21 days. Tumors were measured twice a week throughout the treatment period using a pair of calipers and tumor volumes were calculated according to the formula V=L×W^2/2 (V: volume, mm^3; L: length, mm. W: width, mm) Tumor growth inhibition was calculated based on the mean tumor volume measured on the first day that the mean volume of the vehicle group exceeded 2000 mm^3 according to the formula % TGI=100-mean tumor volume of treatment group/mean tumor volume of control group x 100.

For the compound `COC(=O)c1cc2c(-c3cc(N)ccc3Oc3ccccc3)[nH]c(C)c2c(=O)[nH]1` [Example 2, methyl 1-(5-amino-2-phenoxyphenyl)-3-methyl-4-oxo-4,5-dihydro-2H-pyrrolo[3,4-c]pyridine-6-carboxylate], the values for the inhibitory constant (Ki) at BRD4 (BDI_K57-E168) and on BRD4 (BDII_E352-M457) were 1.47 nM and 21.5 nM, respectively. Moreover, the EC50 in series [1] came to 24 nM. Moreover, the “% inhibition of LPS induced IL-6 production at 3 mg/kg” value (“% inhibition” below) in series [2] is 25%.
Turning to `COCCNC(=O)c1cc2c(-c3ccccc3Oc3ccccc3)[nH]c(C)c2c(=O)[nH]1` [Example 29, N-(2-methoxyethyl)-3-methyl-4-oxo-1-(2-phenoxyphenyl)-4,5-dihydro-2H-pyrrolo[3,4-c]pyridine-6-carboxamide], the results for the Ki on BRD4 (BDI_K57-E168) and on BRD4 (BDII_E352-M457) were 10.6 nM and 46.7 nM, respectively. In addition, the EC50 in series [1] is 114 nM. In addition, the “% inhibition” value in series [2] turned out to be 40%.
Regarding `CCCNC(=O)c1cc2c(-c3cc(N)ccc3Oc3ccc(F)cc3F)[nH]c(C)c2c(=O)[nH]1` [Example 43, 1-[5-amino-2-(2,4-difluorophenoxy)phenyl]-3-methyl-4-oxo-N-propyl-4,5-dihydro-2H-pyrrolo[3,4-c]pyridine-6-carboxamide], the inhibition constant (Ki) at BRD4 (BDI_K57-E168) was 15.9 nM; at BRD4 (BDII_E352-M457), 25.4 nM. Further, the EC50 in series [1] was 150 nM. Besides, in series [2], the “% inhibition” value is recorded as 39%.
Take `Cc1[nH]c(-c2cc(C#N)ccc2Oc2ccc(F)cc2F)c2cn[nH]c(=O)c12` [Example 82, 4-(2,4-difluorophenoxy)-3-(7-methyl-1-oxo-2,6-dihydro-1H-pyrrolo[3,4-d]pyridazin-5-yl)benzonitrile]: the values for the inhibition constant (Ki) at BRD4 (BDI_K57-E168) and on BRD4 (BDII_E352-M457) were 36.7 nM and 357 nM, respectively. In series [1], the EC50 came out at 167 nM. The “% inhibition” value in series [2] came to 44%.
On the same counts, the results for `Cc1[nH]c(-c2cc(N)ccc2Oc2ccccc2)c2c1C(=O)NCC2` [Example 94, 1-(5-amino-2-phenoxyphenyl)-3-methyl-2,5,6,7-tetrahydro-4H-pyrrolo[3,4-c]pyridin-4-one] are 17.2 nM, 32.4 nM, 91.9 nM and 27%.
For the compound `Cc1[nH]c(-c2cc(S(C)(=O)=O)ccc2Oc2ccc(F)cc2F)c2c1C(=O)NCC2` [Example 98, 1-[2-(2,4-difluorophenoxy)-5-(methylsulfonyl)phenyl]-3-methyl-2,5,6,7-tetrahydro-4H-pyrrolo[3,4-c]pyridin-4-one], the inhibition constant (Ki) at BRD4 (BDI_K57-E168) was 34.9 nM. The compound further had a Ki at BRD4 (BDII_E352-M457) of 148 nM. Also, in series [1], the EC50 is 721 nM. In series [3] (45 mg/kg PO), the “% removed from study (morbidity or weight loss in excess of 20%)” value is reported as 0%, the “% TGI” value was 45** % and the “% TGD (tumor growth delay)” value is given as 53** %. Further, in series [3] (150 mg/kg PO), the “% removed from study (morbidity or weight loss in excess of 20%)” value came out at 20%, the “% TGI” value is on record as 68*** % and the “% TGD (tumor growth delay)” value is recorded as 123** %.
